The experiment concerns the target T1, purified human Hsp90.
T1 construct: purified human Hsp90 (Stressgen, SPP-770)
The experiment can be described thus: Hsp90 binding assay: displacement of BODIPY-labeled geldanamycin measured by fluorescence polarization. The following applies: BODIPY-GM 10 nM, Hsp90 30 nM, overnight at room temperature; for IC50: read-out: GM displacement from purified Hsp90 measured by FP IC 50; for GM displacement from purified Hsp90 measured by FP Inhibition by 5 μM compd. (%): 5 μM compound. Summed up: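 Purified human Hsp90 at 30 nM and 10 nM BODIPY-GM tracer were incubated overnight at room temperature with compound in 2% DMSO. The buffer was 20 mM HEPES-KOH pH 7.3, 50 mM KCl, 5 mM MgCl2, 20 mM Na2MoO4, 2 mM DTT. Background-subtracted mP values read at 485/530 nm were normalized to DMSO wells to give % inhibition.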

As for `Nc1ncnc2c1nc(Sc1cc3c(cc1Br)OCO3)n2CCC1CCN(CCCO)CC1` [Example Compound 150, 3-[4-(2-{6-Amino-8-[(6-bromo-1,3-benzodioxol-5-yl)thio]-9H-purin-9-yl}ethyl)piperidin-1-yl]propan-1-ol], the IC50 was 600 nM.
On to `C[C@H](O)C(=O)N1CCC(CCn2c(Sc3cc4c(cc3Cl)OCO4)nc3c(N)ncnc32)CC1` [Example Compound 203, (2S)-1-[4-(2-{6-Amino-8-[(6-chloro-1,3-benzodioxol-5-yl)thio]-9H-purin-9-yl}ethyl)piperidin-1-yl]-1-oxopropan-2-ol], for which the IC50 came out at 395 nM.
Turning to `COc1ccc(C#N)c(Sc2nc3c(N)ncn(CCC4CCN(C=O)CC4)c-3n2)c1` [compound 80], the “GM displacement from purified Hsp90 measured by FP Inhibition by 5 μM compd. (%)” value is listed as 34.0%.
`Nc1ncnc2c1nc(Sc1cc(O)c(O)cc1Br)n2CCC1CCN(C=O)CC1` [Example Compound 145, 4-(2-{6-Amino-8-[(2-bromo-4,5-dihydroxyphenyl)thio]-9H-purin-9-yl}ethyl)piperidine-1-carbaldehyde]: the IC50 is 600 nM.
As for `C[C@@H](NC(=O)OC(C)(C)C)C(=O)N1CCC(Cn2c(Sc3cc4c(cc3Br)OCCO4)nc3c(N)ncnc32)CC1` [compound 120, tert-Butyl {(1R)-2-[4-({6-amino-8-[(7-bromo-2,3-dihydro-1,4-benzodioxin-6-yl)thio]-9H-purin-9-yl}methyl)piperidin-1-yl]-1-methyl-2-oxoethyl}carbamate], the IC50 amounted to 400 nM.
Still for that read-out and setting: as for `COCCOCC(=O)N1CCC(CCn2c(Sc3cc4c(cc3Br)OCCO4)nc3c(N)ncnc32)CC1` [compound 3, 8-[(7-Bromo-2,3-dihydro-1,4-benzodioxin-6-yl)thio]-9-(2-{1-[(2-methoxyethoxy)acetyl]piperidin-4-yl}ethyl)-9H-purin-6-amine], the figure is 80 nM; as for `COc1ccc(C#N)c(Sc2nc3c(N)ncnc3n2CCC2CCN(C(=O)CO)CC2)c1` [compound 104, 2-({6-Amino-9-[2-(1-glycoloylpiperidin-4-yl)ethyl]-9H-purin-8-yl}thio)-4-methoxybenzonitrile], 800 nM; as for `Nc1ncnc2c1nc(Sc1cc3c(cc1Br)C(=O)CC3)n2CCC1CCN(C=O)CC1` [compound 86, 4-(2{6-Amino-8-[(6-bromo-l-oxo-2,3-dihydro-1H-inden-5-yl)thio]-9H-purin-9-yl}ethyl)piperidine-1-carbaldehyde], 60 nM.
Turning to `Nc1ncnc2c1nc(Sc1cc3c(cc1Br)OCO3)n2CCCn1c(=O)n2n(c1=O)CC=CC2` [compound 31], the IC50 was 900 nM.
For the compound `CS(=O)(=O)N1CCC(CCn2cnc(N)c3nc(Sc4cc5c(cc4C#N)OCCO5)nc2-3)CC1` [compound 55], the “GM displacement from purified Hsp90 measured by FP Inhibition by 5 μM compd. (%)” value was 26.0%.
`C[C@H](O)C(=O)N1CCC(CCn2c(Sc3cc4c(cc3C#N)OCCO4)nc3c(N)ncnc32)CC1` [compound 99, 7-{[6-Amino-9-(2-{1-[(2S)-2-hydroxypropanoyl]piperidin-4-yl}ethyl)-9H-purin-8-yl]thio}-2,3-dihydro-1,4-benzodioxine-6-carbonitrile]: the IC50 came out at 490 nM.
Still for that read-out and setting: as for `Nc1ncnc2c1nc(Sc1cc3occc3cc1Br)n2CCC1CCC(F)(F)CC1` [Example Compound 189, 8-[(5-Bromo-1-benzofuran-6-yl)thio]-9-[2-(4,4-difluorocyclohexyl)ethyl]-9H-purin-6-amine], the figure is above 5000 nM; as for `Nc1ncnc2c1nc(Sc1cc3c(cc1Br)CCC3)n2CCC1CCN(C=O)CC1` [compound 84], 20 nM.
On the same count and under the same terms, the value for `COc1ccc(OC(F)(F)F)c(Sc2nc3c(N)ncnc3n2CCC2CCN(C=O)CC2)c1` [compound 77, 4-[2-(6-Amino-8-{[5-methoxy-2-(trifluoromethoxy)phenyl]thio}-9H-purin-9-yl)ethyl]piperidine-1-carbaldehyde] was 400 nM.
Take `CO[C@H](C)C(=O)N1CCC(CCn2c(Sc3cc4c(cc3Br)OCCO4)nc3c(N)ncnc32)CC1` [compound 7, 8-[(7-Bromo-2,3-dihydro-1,4-benzodioxin-6-yl)thio]-9-(2-{1-[(2R)-2-methoxypropanoyl]piperidin-4-yl}ethyl)-9H-purin-6-amine]: the IC50 was found to be 95 nM.
As to `CC(=O)N[C@H](C)C(=O)N1CCC(CCn2c(Sc3cc4c(cc3Br)OCCO4)nc3c(N)ncnc32)CC1` [Example Compound 161, N-{(1R)-2-[4-(2-{6-Amino-8-[(7-bromo-2,3-dihydro-1,4-benzodioxin-6-yl)thio]-9H-purin-9-yl}ethyl)piperidin-1-yl]-1-methyl-2-oxoethyl}acetamide], the IC50 is 140 nM.
Turning to `CCC(=O)N1CCC(CCn2cnc(N)c3nc(Sc4cc5c(cc4C#N)C(=O)CC5)nc2-3)CC1` [compound 74, 6-({6-Amino-3-[2-(1-propionylpiperidin-4-yl)ethyl]-3H-purin-8-yl}thio)-3-oxoindane-5-carbonitrile], the “GM displacement from purified Hsp90 measured by FP Inhibition by 5 μM compd. (%)” value was 18.0%.
With `C[C@H](O)C(=O)N1CCC(n2c(Sc3cc4c(cc3Br)OCO4)nc3c(N)ncnc32)CC1` [Example Compound 212, (2S)-1-(4-{6-amino-8-[(6-bromo-1,3-benzodioxol-5-yl)thio]-9H-purin-9-yl}piperidin-1-yl)-1-oxopropan-2-ol], the IC50 came out at 350 nM.
Consider `Nc1ncn(CCC2CCN(C(=O)CO)CC2)c2nc(Sc3cc4c(cc3Br)OCCO4)nc1-2` [compound 91, 2-[4-(2-{6-Amino-8-[(7-bromo-2,3-dihydro-1,4-benzodioxin-6-yl)thio]-3H-purin-3-yl}ethyl)piperidin-1-yl]-2-oxoethanol], for which the “GM displacement from purified Hsp90 measured by FP Inhibition by 5 μM compd. (%)” value was 32.0%.
For the compound `CCN(CC)C(=O)CN1CCC(CCn2c(Sc3cc4c(cc3Br)OCCO4)nc3c(N)ncnc32)CC1` [compound 27, 2-[4-(2-{6-Amino-8-[(7-bromo-2,3-dihydro-1,4-benzodioxin-6-yl)thio]-9H-purin-9-yl}ethyl)piperidin-1-yl]-N,N-diethylacetamide], the IC50 turned out to be 110 nM.
Regarding `CCCN1CCCCC1CCn1cnc(N)c2nc(Sc3cc4c(cc3Br)OCCO4)nc1-2` (stereo not shown) [compound 16, 8-[(7-Bromo-2,3-dihydro-1,4-benzodioxin-6-yl)thio]-3-[2-(1-propylpiperidin-2-yl)ethyl]-3H-purin-6-amine], the “GM displacement from purified Hsp90 measured by FP Inhibition by 5 μM compd. (%)” value is 73.0%.
On the same count and under the same terms, the value for `COc1cc(OC)c(Cl)c(Sc2nc3c(N)ncn(CC4CCCN(C(=O)[C@H](C)NC(=O)OC(C)(C)C)C4)c-3n2)c1` (stereo partly drawn) [compound 118, tert-Butyl {(1S)-2[3-({6-amino-8-[(2-chloro-3,5-dimethoxyphenyl)thio]-3H-purin-3-yl}methyl)piperidin-1-yl]-1-methyl-2-oxoethyl}carbamate] was 12.0%.
With `Nc1ncn(CCC2CCN(C=O)CC2)c2nc(Sc3cc(O)c(O)cc3Br)nc1-2` [Example Compound 146, 4-(2-{6-amino-8-[(2-bromo-4,5-dihydroxyphenyl)thio]-3H-purin-3-yl}ethyl)piperidine-1-carbaldehyde], the “GM displacement from purified Hsp90 measured by FP Inhibition by 5 μM compd. (%)” value is listed as 87.0%.
Regarding `C[C@H](O)C(=O)N1CCC(CCn2c(Sc3cc4c(cc3Br)CCCC4)nc3c(N)ncnc32)CC1` [Example Compound 163, (2S)-1-[4-(2-{6-amino-8-[(3-bromo-5,6,7,8-tetrahydronaphthalen-2-yl)thio]-9H-purin-9-yl}ethyl)piperidin-1-yl]-1-oxopropan-2-ol], the IC50 was determined as 205 nM.
On to `C[C@H](O)C(=O)N1CCCC[C@H]1CCn1c(Sc2cc3c(cc2Br)OCO3)nc2c(N)ncnc21` [Example Compound 207, (2S)-1-[(2S)-2-(2-{6-Amino-8-[(6-bromo-1,3-benzodioxol-5-yl)thio]-9H-purin-9-yl}ethyl)piperidin-1-yl]-1-oxopropan-2-ol], for which the IC50 is above 5000 nM.
Still for that read-out and setting: the value for `CS(=O)(=O)N1CCCC(CCn2c(Sc3cc4c(cc3C#N)OCO4)nc3c(N)ncnc32)C1` (stereo not shown) [compound 47, 6-[(6-Amino-9 {2-[1-(methylsulfonyl)piperidin-3-yl]ethyl}-9H-purin-8-yl)thio]-1,3-benzodioxole-5-carbonitrile] was 90 nM; that for `Nc1ncnc2c1nc(Sc1cc3c(cc1I)CCC3)n2CCC1CCN(C=O)CC1` [compound 76, 4-(2-{6-Amino-8-[(6-iodo-2,3-dihydro-1H-inden-5-yl)thio]-9H-purin-9-yl}ethyl)piperidine-l-carbaldehyde] was 70 nM.
Still for that read-out and setting: the value for `C[C@H](O)C(=O)N1CCC(CCn2c(Sc3cc4c(cc3C#N)OCO4)nc3c(N)ncnc32)CC1` [compound 95, 6-{[6-Amino-9-(2-{1-[(2S)-2-hydroxypropanoyl]piperidin-4-yl}ethyl)-9H-purin-8-yl]thio}-l,3-benzodioxole-5-carbonitrile] was 700 nM; that for `CC(C)(C)OC(=O)N1CCC(CCn2c(Sc3cc4c(cc3C=O)OCO4)nc3c(N)ncnc32)CC1` [Example Compound 169, tert-Butyl 4-(2-{6-amino-8-[(6-formyl-1,3-benzodioxol-5-yl)thio]-9H-purin-9-yl}ethyl)piperidine-1-carboxylate] was 1900 nM.
On the same count and under the same terms, the value for `COc1cc(Br)c(Sc2nc3c(N)ncnc3n2CCC2CCN(C(=O)[C@H](C)O)CC2)cc1OC` [Example Compound 208, (2S)-1-[4-(2-{6-Amino-8-[(2-bromo-4,5-dimethoxyphenyl)thio]-9H-purin-9-yl}ethyl)piperidin-1-yl]-1-oxopropan-2-ol] was above 5000 nM; that for `CCOC(=O)c1cc2c(cc1Sc1nc3c(N)ncnc3n1CCC1CCNCC1)OCO2` [Example Compound 175, ethyl 6-{[6-amino-9-(2-piperidin-4-ylethyl)-9H-purin-8-yl]thio}-1,3-benzodioxole-5-carboxylate] was 70 nM.
